{"source": "ChEMBL document CHEMBL5653631", "about": "“A Potent and Selective ULK1 Inhibitor Suppresses Autophagy and Sensitizes Cancer Cells to Nutrient Stress” (iScience, 2018)", "key": {"[1]": {"target": "Receptor tyrosine-protein kinase erbB-4 (Homo sapiens) (UniProt Q15303)", "sequence (Q15303 whole entry)": "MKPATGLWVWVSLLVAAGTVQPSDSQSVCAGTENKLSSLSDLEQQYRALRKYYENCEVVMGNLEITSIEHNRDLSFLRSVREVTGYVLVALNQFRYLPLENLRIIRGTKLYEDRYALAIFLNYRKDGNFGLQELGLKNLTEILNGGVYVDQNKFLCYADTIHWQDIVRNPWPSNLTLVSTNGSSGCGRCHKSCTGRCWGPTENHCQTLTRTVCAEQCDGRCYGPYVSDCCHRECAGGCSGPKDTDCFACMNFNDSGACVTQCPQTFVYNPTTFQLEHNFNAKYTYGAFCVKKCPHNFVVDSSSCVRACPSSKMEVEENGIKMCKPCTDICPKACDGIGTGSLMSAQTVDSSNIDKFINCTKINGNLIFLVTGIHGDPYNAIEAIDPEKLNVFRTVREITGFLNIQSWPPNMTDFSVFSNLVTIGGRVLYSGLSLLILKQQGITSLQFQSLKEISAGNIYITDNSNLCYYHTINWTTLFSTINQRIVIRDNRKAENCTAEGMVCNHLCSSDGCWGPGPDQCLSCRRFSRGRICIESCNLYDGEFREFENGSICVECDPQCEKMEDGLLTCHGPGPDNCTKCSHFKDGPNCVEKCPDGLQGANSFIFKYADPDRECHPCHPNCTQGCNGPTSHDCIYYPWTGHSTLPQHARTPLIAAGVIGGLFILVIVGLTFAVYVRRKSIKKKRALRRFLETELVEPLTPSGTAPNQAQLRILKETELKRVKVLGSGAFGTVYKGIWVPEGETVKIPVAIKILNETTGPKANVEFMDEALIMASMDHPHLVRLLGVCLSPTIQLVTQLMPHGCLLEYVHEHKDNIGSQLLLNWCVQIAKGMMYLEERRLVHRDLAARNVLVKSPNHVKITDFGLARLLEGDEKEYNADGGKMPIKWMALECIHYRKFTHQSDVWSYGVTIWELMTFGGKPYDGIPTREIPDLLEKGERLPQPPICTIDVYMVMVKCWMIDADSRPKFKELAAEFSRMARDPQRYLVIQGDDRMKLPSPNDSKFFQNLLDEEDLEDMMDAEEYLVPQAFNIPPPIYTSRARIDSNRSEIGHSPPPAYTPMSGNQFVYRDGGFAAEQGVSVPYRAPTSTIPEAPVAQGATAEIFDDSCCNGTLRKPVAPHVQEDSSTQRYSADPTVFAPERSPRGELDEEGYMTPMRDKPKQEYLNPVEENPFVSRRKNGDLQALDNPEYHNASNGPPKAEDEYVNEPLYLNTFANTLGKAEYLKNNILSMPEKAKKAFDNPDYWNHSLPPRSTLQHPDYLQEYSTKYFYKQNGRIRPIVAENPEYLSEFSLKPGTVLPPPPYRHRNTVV", "experiment": "Inhibition of human recombinant ErbB4 at 40 nM related to control ULK1"}, "[2]": {"target": "Serine/threonine-protein kinase PRP4 homolog (Homo sapiens) (UniProt Q13523)", "experiment": "Inhibition of human recombinant PRP4 at 40 nM in presence of ATP by radiometric assay relative to control"}, "[3]": {"target": "Rho-associated protein kinase 1 (Homo sapiens) (UniProt Q13464)", "sequence (Q13464 2-1354 limits assumed)": "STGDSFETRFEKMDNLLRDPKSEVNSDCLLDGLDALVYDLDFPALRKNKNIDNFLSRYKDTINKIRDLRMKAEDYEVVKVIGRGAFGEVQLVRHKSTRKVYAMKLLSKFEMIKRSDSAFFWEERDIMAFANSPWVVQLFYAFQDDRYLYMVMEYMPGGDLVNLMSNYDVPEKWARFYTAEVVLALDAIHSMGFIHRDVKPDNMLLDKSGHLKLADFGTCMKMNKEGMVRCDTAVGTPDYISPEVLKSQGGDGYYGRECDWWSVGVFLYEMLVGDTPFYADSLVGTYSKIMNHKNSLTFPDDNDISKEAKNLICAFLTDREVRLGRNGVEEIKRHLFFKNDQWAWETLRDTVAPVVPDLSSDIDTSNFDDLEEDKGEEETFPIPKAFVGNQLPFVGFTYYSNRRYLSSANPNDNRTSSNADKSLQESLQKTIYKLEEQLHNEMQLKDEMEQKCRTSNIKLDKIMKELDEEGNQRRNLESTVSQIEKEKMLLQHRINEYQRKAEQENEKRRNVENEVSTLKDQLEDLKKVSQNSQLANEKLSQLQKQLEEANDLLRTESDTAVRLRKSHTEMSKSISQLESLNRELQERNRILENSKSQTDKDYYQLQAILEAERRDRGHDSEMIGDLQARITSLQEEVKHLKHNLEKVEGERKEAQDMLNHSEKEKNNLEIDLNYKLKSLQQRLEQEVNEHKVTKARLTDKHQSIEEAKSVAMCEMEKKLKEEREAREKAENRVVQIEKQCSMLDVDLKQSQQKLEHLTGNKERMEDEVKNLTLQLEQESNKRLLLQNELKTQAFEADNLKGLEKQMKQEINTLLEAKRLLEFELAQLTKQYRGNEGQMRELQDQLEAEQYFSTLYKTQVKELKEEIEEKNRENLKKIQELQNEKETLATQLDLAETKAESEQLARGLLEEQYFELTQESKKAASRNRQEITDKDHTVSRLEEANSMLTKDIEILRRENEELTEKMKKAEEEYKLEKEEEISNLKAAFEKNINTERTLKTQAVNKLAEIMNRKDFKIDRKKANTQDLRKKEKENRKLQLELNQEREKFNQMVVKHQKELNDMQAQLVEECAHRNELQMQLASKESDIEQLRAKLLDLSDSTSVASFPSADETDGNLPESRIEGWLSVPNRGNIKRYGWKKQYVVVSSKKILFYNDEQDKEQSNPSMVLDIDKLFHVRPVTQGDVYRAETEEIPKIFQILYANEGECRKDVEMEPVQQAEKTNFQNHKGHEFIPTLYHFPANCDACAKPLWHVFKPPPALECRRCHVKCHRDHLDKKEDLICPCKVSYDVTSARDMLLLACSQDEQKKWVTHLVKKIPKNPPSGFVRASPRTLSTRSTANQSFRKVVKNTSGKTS", "experiment": "Inhibition of human recombinant ROCK1 at 40 nM related to control ULK1"}, "[4]": {"target": "Serine/threonine-protein kinase Chk2 (Homo sapiens) (UniProt O96017)", "sequence (O96017 whole entry)": "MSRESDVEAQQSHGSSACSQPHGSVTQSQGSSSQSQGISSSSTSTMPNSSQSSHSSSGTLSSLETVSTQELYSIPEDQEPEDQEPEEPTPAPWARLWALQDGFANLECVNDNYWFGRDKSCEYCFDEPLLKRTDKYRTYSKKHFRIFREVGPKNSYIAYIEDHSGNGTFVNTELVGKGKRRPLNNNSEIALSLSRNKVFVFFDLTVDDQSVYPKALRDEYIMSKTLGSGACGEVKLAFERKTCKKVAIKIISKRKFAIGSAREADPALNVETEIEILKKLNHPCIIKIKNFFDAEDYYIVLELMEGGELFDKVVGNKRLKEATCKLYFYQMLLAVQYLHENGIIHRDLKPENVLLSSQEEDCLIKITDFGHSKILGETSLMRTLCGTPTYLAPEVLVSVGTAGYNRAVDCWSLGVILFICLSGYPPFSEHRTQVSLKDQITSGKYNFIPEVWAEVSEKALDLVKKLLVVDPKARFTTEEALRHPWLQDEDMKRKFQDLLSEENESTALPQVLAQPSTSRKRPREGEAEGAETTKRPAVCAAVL", "experiment": "Inhibition of human recombinant CHK2 at 40 nM in presence of ATP by radiometric assay relative to control"}, "[5]": {"target": "Protein kinase C delta type (Homo sapiens) (UniProt Q05655)", "sequence (Q05655 whole entry, looked up)": "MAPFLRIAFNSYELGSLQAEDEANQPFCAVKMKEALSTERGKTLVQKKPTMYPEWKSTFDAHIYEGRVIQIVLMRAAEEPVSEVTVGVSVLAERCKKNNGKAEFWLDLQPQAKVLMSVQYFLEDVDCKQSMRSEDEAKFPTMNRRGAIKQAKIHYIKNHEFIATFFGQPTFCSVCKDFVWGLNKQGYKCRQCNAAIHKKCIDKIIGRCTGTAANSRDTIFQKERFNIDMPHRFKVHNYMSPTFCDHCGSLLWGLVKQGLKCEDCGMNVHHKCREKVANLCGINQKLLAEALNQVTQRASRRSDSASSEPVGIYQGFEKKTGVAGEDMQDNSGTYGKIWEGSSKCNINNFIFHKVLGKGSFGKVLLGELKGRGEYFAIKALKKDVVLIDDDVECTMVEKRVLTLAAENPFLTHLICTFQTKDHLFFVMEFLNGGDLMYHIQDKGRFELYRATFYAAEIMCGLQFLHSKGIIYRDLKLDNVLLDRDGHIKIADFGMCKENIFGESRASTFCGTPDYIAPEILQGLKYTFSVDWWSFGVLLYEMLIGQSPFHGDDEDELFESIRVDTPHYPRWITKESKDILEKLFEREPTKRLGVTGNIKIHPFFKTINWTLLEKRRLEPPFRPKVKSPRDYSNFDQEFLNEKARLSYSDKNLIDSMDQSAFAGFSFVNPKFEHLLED", "experiment": "Inhibition of human recombinant PKCd at 500 nM related to control ULK1"}, "[6]": {"target": "Ribosomal protein S6 kinase alpha-1 (Homo sapiens) (UniProt Q15418)", "sequence (Q15418 whole entry)": "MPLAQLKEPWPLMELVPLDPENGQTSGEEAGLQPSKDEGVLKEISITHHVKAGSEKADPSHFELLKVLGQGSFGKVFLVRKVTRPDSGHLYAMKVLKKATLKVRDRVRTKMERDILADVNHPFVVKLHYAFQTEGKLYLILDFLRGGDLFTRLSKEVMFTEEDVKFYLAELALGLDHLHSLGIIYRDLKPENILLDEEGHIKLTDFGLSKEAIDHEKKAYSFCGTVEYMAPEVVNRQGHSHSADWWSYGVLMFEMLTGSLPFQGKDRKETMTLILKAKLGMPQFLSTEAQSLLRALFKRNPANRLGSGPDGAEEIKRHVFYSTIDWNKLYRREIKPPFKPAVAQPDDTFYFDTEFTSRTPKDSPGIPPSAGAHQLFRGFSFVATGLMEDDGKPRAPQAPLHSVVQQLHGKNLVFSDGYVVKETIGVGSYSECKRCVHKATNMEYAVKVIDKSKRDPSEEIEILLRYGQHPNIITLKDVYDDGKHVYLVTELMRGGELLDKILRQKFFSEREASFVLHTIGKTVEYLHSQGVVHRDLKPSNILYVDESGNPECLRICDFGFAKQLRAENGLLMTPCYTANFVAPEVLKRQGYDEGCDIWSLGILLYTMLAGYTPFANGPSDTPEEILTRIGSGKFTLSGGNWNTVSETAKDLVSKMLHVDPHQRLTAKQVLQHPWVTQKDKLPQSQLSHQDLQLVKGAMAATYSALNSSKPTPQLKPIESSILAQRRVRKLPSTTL", "experiment": "Inhibition of human recombinant RSK1 at 500 nM in presence of ATP by radiometric assay relative to control"}, "[7]": {"target": "T1, Testis-specific serine/threonine-protein kinase 3 (Homo sapiens) (UniProt Q96PN8)", "T1 sequence (whole entry)": "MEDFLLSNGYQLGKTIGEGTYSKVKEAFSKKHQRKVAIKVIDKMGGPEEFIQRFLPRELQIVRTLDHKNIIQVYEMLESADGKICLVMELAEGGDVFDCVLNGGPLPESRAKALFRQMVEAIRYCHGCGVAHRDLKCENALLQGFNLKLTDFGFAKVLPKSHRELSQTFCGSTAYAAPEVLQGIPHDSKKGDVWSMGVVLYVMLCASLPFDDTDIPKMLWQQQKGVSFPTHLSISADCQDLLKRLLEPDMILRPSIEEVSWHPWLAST", "experiment": "Inhibition of human recombinant TSSK3 at 500 nM related to control ULK1"}, "[8]": {"target": "T2, Serine/threonine-protein kinase ULK1 (Homo sapiens) (UniProt O75385)", "T2 sequence (whole entry)": "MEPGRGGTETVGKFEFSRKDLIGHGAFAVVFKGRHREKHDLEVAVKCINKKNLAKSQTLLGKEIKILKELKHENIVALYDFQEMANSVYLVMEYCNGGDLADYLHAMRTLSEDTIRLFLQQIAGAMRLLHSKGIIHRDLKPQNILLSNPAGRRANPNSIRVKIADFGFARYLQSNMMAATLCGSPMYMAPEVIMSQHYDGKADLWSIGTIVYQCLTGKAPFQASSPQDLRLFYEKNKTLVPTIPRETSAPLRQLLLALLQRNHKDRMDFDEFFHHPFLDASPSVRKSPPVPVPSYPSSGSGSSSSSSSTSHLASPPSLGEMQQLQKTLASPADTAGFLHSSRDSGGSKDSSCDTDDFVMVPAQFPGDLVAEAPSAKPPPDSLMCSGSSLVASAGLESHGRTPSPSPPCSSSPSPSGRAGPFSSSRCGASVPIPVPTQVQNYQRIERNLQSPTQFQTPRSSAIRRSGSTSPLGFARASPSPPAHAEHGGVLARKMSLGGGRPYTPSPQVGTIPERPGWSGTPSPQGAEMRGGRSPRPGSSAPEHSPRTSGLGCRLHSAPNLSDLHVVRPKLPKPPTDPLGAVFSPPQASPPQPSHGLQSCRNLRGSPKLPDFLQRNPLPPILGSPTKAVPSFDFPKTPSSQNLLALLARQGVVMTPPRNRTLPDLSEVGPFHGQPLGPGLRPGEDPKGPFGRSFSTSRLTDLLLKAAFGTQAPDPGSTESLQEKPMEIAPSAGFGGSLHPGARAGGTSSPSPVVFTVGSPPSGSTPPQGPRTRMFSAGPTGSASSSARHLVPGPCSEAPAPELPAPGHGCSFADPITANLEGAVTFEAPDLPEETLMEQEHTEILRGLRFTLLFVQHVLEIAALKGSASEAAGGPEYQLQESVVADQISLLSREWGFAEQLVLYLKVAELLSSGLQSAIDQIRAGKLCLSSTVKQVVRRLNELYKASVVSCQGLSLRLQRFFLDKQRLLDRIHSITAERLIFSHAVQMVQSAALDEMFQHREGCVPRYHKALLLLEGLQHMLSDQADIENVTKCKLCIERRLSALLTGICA", "experiment": "Inhibition of human recombinant ULK1 at 500 nM in presence of ATP by radiometric assay relative to control"}, "[9]": {"target": "Tyrosine-protein kinase JAK2 (Homo sapiens) (UniProt O60674)", "experiment": "Inhibition of human recombinant JAK2 at 15 nM in presence of ATP by radiometric assay relative to control"}, "[10]": {"target": "T3, Ephrin type-A receptor 3 (Homo sapiens) (UniProt P29320)", "T3 sequence (whole entry)": "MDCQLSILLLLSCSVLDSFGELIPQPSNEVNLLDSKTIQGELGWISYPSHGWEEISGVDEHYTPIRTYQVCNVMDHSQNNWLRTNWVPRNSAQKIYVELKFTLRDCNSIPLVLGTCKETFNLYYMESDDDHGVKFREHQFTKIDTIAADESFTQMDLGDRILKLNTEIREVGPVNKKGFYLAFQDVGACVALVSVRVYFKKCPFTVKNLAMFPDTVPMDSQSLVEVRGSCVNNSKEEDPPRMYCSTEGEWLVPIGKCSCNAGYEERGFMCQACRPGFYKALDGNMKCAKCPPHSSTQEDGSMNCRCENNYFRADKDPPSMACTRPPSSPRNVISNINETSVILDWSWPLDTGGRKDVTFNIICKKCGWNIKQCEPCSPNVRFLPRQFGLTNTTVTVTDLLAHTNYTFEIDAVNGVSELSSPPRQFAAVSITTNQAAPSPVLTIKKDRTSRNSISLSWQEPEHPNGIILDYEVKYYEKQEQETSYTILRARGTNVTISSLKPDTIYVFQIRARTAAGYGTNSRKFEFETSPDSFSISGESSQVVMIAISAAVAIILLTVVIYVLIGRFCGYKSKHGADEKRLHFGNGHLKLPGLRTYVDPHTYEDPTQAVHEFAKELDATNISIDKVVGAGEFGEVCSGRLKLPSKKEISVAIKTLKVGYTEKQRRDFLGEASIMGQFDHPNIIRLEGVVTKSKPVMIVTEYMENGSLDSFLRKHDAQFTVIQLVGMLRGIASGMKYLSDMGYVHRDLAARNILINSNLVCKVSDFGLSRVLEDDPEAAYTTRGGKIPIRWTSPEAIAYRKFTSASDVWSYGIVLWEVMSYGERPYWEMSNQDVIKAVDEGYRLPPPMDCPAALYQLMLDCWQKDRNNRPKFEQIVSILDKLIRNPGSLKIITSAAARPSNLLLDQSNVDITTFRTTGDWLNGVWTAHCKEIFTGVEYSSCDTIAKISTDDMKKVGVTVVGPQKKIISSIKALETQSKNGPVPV", "experiment": "Inhibition of human recombinant EphA3 at 15 nM related to control ULK1"}}, "data": [{"compound": "O=C(N[C@@H](C1CC1)C(F)(F)F)c1cc(-c2cnn3cc(-c4ccc(F)cc4)cnc23)cs1", "values": [{"measurement": "fold change (FC)", "setting": "[1]", "value": 0}, {"measurement": "inhibition", "setting": "[2]", "value": 6, "unit": "%"}, {"measurement": "fold change (FC)", "setting": "[3]", "value": 0}, {"measurement": "inhibition", "setting": "[4]", "value": 0, "unit": "%"}]}, {"compound": "CNC(=O)c1ccccc1Oc1nc(Nc2cc(OC)c(OC)c(OC)c2)ncc1Br", "values": [{"measurement": "fold change (FC)", "setting": "[5]", "value": 0.04}, {"measurement": "inhibition", "setting": "[6]", "value": 19, "unit": "%"}, {"measurement": "fold change (FC)", "setting": "[7]", "value": 0}, {"measurement": "inhibition", "setting": "[8]", "value": 74, "unit": "%"}]}, {"compound": "CC(C)[C@H](NC(=O)c1cc(-c2cnn3cc(-c4ccc(OCCN5CCCCC5)cc4)cnc23)cs1)C(F)(F)F", "values": [{"measurement": "inhibition", "setting": "[9]", "value": 6, "unit": "%"}, {"measurement": "fold change (FC)", "setting": "[10]", "value": 0.03}]}]}
